Reference: the NIST ThermoML archive (doi:10.1016/j.tca.2012.02.005)
Numbers after ± are expanded uncertainties.

Assay: activity coefficient (dimensionless); of the first substance listed, at infinite dilution; xn = mol fraction of the nth substance listed
Conditions: 298.15 K; 101 kPa; Liquid; Chromatography; x1 = 0
With `CCCCCCN` [1-hexanamine] + CO the activity coefficient was 13.7 ± 2.3.
Molecule `CCN(CC)CC` [triethylamine] + c1ccccc1 has an activity coefficient of 1.28 ± 0.1.
`Cc1cccc(C)n1` [2,6-dimethylpyridine] + CO gave an activity coefficient of 0.94 ± 0.07.
Molecule `CCC(C)N` (centres undefined) [2-butanamine] + c1ccccc1 has an activity coefficient of 1.15 ± 0.17.
In the case of `CO` [methanol] + CCCNCCC, the activity coefficient is reported as 0.69 ± 0.05.
`NC1CCCCC1` [cyclohexylamine] + CO gave an activity coefficient of 4.81 ± 0.47.
`CCCCN` [1-butanamine] + CO showed an activity coefficient of 0.46 ± 0.07.
With `CCC(C)N` (centres undefined) [2-butanamine] + CO the activity coefficient was 0.75 ± 0.1.
`CO` [methanol] + CCCCN gave an activity coefficient of 0.35 ± 0.07.
`CO` [methanol] + CCCCCCN gave an activity coefficient of 0.38 ± 0.05.
Molecule `CO` [methanol] + NC1CCCCC1 has an activity coefficient of 0.33 ± 0.03.
Molecule `CCCN(CCC)CCC` [tripropylamine] + c1ccccc1 has an activity coefficient of 2.79 ± 0.62.
With `CO` [methanol] + CC(C)(C)N the activity coefficient was 0.29 ± 0.05.
Work on `CCCN(CCC)CCC` [tripropylamine] + CCCCCCCCCCCCCCCC yielded an activity coefficient of 1.01.
In the case of `CCCN(CCC)CCC` [tripropylamine] + CO, the activity coefficient is reported as 8.79 ± 1.6.
`CO` [methanol] + Cc1cccc(C)n1 showed an activity coefficient of 0.61 ± 0.1.
With `CCCCCCN` [1-hexanamine] + c1ccccc1 the activity coefficient was 16.2 ± 3.1.
`CCCNCCC` [dipropylamine] + c1ccccc1 gave an activity coefficient of 1.48 ± 0.15.
Work on `CO` [methanol] + C1CCNCC1 yielded an activity coefficient of 0.43 ± 0.03.
Work on `CO` [methanol] + Cc1ccccn1 yielded an activity coefficient of 0.79 ± 0.1.
`CO` [methanol] + Cc1ccncc1 gave an activity coefficient of 0.68 ± 0.1.
With `CC(C)(C)N` [2-methyl-2-propanamine] + CO the activity coefficient was 0.25 ± 0.05.
`Cc1cccnc1` [3-methylpyridine] + CO showed an activity coefficient of 0.82 ± 0.07.
In the case of `CO` [methanol] + CCC(C)N, the activity coefficient is reported as 0.38 ± 0.05.
Work on `c1ccncc1` [pyridine] + CO yielded an activity coefficient of 1.2 ± 0.19.
With `CCNCC` [diethylamine] + CO the activity coefficient was 0.33 ± 0.05.
Molecule `Cc1cccnc1` [3-methylpyridine] + c1ccccc1 has an activity coefficient of 0.96 ± 0.12.
`Cc1ccccn1` [2-methylpyridine] + CO showed an activity coefficient of 0.75 ± 0.07.
Work on `Cc1ccncc1` [4-methylpyridine] + CO yielded an activity coefficient of 1 ± 0.12.
For `CCCNCCC` [dipropylamine] + CO, the activity coefficient was 0.91 ± 0.12.
Work on `CC(C)(C)N` [2-methyl-2-propanamine] + c1ccccc1 yielded an activity coefficient of 1.32 ± 0.21.
In the case of `CO` [methanol] + Cc1cccnc1, the activity coefficient is reported as 0.94 ± 0.12.
For `NC1CCCCC1` [cyclohexylamine] + c1ccccc1, the activity coefficient was 6.43 ± 1.
Work on `CO` [methanol] + CCNCC yielded an activity coefficient of 0.51 ± 0.03.
